{
  "source": "patent US5504084A",
  "about": "“Pharmaceutical for the treatment of skin disorders” (priority 1994, dated 1996)",
  "key": {"[1]": {"system": "Normal human epidermal keratinocytes (NHEK)", "assay": "Inhibition of NHEK proliferation, BrdU incorporation (in vitro DNA synthesis)", "format": "cell-based", "conditions": "18-24 hours; for inhibition at 100 µM: 10^-4 M; for inhibition at 10 µM: 10^-5 M", "experimental": "Cells: Normal human epidermal keratinocytes (NHEK, Clonetics Corp., San Diego, Calif.).\nLabelling Reagent: Aqueous solution of 5-bromo-2'-deoxyuridine and 5-fluoro-2'-deoxyuridine (Amersham Corp., II).\nPeroxidase-anti-mouse Immunoglobulin (Ig from pooled sheep antisera, Amersham Corp., II).\nPeroxidase substrate: ABTS (2,2'-azino-di-(3-ethyl-benzthiazoline sulphonate)! Amersham Corp., II).\nCompounds: Compounds are dissolved in absolute ethanol (final concentration≤0.1%). Various drug concentrations are prepared in thymidine free keratinocyte growth medium (KGM without hydrocortisone, Clonetics Corp., Calif.) in the presence of BrdU.\nDynatech MR 7000 microplate reader with 410 nm filter.\nKeratinocytes are seeded into 96-well flat bottom (6.4 mm diameter) culture dishes at 5,000 cells/well. The cells are allowed to grow (2-3days) and then dosed with various concentrations of compounds prepared in KGM without thymidine, without hydrocortisone in the presence of BrdU (1:200). After 18-24 hours at 37° C., 5% CO2, the cells are washed with warm PBS and fixed with acetic acid/ethanol for 30 minutes at room temperature. After washing the wells with PBS/0.1% Tween-20, the remaining electrostatic sites on the polystyrene plates are blocked by 3% BSA in PBS/0.1% Tween-20. Anti-bromodeoxyuridine antibody solution with nuclease for denaturing DNA is added to each well and allowed to incubate for 2 hours at 37° C., 5% CO2. The plates were again washed with PBS/0.1% Tween-20 and then incubated at room temperature with peroxidase lined anti-mouse immunoglobulin (1:600). After washing off the second antibody, 1 mM ABTS substrate solution is added to all wells until the desired color intensity (green) is achieved. The color development is stopped by the addition of a Stopping Agent. The absorbance is then measured at 410 nm with a microplate reader using cells in wells not exposed to BrdU as blanks.\nThe intensity of the color reaction is proportional to the BrdU incorporated by proliferating cells. The amount of BrdU incorporated in treated cells in wells is compared to those of untreated controls as follows: [formula]"}, "[2]": {"conditions": "European Patent 13,376; cited from earlier work"}, "[3]": {"assay": "Acute toxicity after intraperitoneal administration, NMRI mouse", "conditions": "in vivo, ip, 3 weeks, Litchfield and Wilcox", "experimental": "The acute toxicity after intraperitoneal administration of the test substances was determined with NMRI mice (20 to 25 g) and SD rats (120 to 195 g). The test substance was suspended in a 1% strength sodium carboxymethylcellulose solution. The different dosages of the test substance were administered to the mice in a volume of 10 ml/kg of body weight and to the rats in a volume of 5 ml/kg of body weight. Per dosage, 10 animals were used. After 3 weeks, the acute toxicity was determined by the method of Litchfield and Wilcox."}, "[4]": {"system": "psoriasis patients", "conditions": "cited from earlier work"}},
  "data": [
    {"compound": "Cc1oncc1C(=O)Nc1ccc(C(F)(F)F)cc1", "note": "[Compound 1, N-(4-trifluoromethylphenyl)-5-methylisoxazole-4-carboxamide]", "values": [
      {"measurement": "inhibition at 100 µM", "setting": "[1]", "value": 87, "unit": "%"},
      {"measurement": "inhibition at 10 µM", "setting": "[1]", "value": 22, "unit": "%"},
      {"measurement": "inhibition at 1 µM", "setting": "[1]; 10^-6 M", "value": 12, "unit": "%"},
      {"measurement": "IC50", "setting": "[1]", "value": 18, "unit": "µM"},
      {"measurement": "anti-inflammatory property", "setting": "[2]", "value": "anti-inflammatory"}
    ]},
    {"compound": "C/C(O)=C(\\C#N)C(=O)Nc1ccc(C(F)(F)F)cc1", "note": "[Compound 2, N-(4-trifluoromethylphenyl)-2-cyano-3-hydroxycrotonamide]", "values": [
      {"measurement": "inhibition at 100 µM", "setting": "[1]", "value": 84, "unit": "%"},
      {"measurement": "inhibition at 10 µM", "setting": "[1]", "value": 49, "unit": "%"},
      {"measurement": "IC50", "setting": "[1]", "value": 15.5, "unit": "µM"},
      {"measurement": "LD50 at 504 h", "setting": "[3]", "value": 150, "unit": "mg/kg"}
    ]},
    {"compound": "cyclosporine A", "values": [
      {"measurement": "most limiting side effect", "setting": "[4]; in vivo, po", "value": "kidney dysfunction"},
      {"measurement": "side effects", "setting": "[4]; in vivo, po", "value": "a number of side effects, most of which are transient and not serious"},
      {"measurement": "success rate in severe psoriasis", "setting": "[4]; oral, patients with severe psoriasis", "value": "high success rate"}
    ]}
  ]
}
